Results from publication PMC5012625 (International Journal of Nanomedicine, 2016).

What was measured:
[1] = Pharmacokinetic study in rats; assay type: in vivo; details: female, Sprague Dawley, rat, plasma
[2] = Particle size and surface charge by dynamic light scattering; assay type: physicochemical; details: dynamic light scattering analyzer, Nano ZS, mean ± SD

AUC(0-inf) ([1]; 0.1 mg kg^−1) [ng·h/mL] | AUC(0-t) ([1]; 0.1 mg kg^−1) [ng·h/mL] | Cmax ([1]; 0.1 mg kg^−1) [ng/mL] | Tmax ([1]; 0.1 mg kg^−1) [min] | F rel ([1]; 0.1 mg/kg) [%] | AUC(0-inf) ([1]; sc, 0.02 mg kg^−1) [ng·h/mL] | AUC(0-t) ([1]; sc, 0.02 mg kg^−1) [ng·h/mL] | Cmax ([1]; sc, 0.02 mg kg^−1) [ng/mL] | Tmax ([1]; sc, 0.02 mg kg^−1) [min] | Zeta potential [2] | Compound
0.0448 | 0.0309 | 0.0392 ± 0.0198 | 30 | 1.06 ± 0.85 | 0.603 | 0.585 | 0.711 ± 0.0978 | 15 | – | CC[C@H](C)[C@H](NC(=O)[C@H](CCC(=O)O)NC(=O)[C@H](CO)NC(=O)[C@@H](NC(=O)[C@@H](N)CO)C(C)C)C(=O)N[C@@H](CCC(N)=O)C(=O)N[C@@H](CC(C)C)C(=O)N[C@@H](CCSC)C(=O)N[C@@H](Cc1cnc[nH]1)C(=O)N[C@@H](CC(N)=O)C(=O)N[C@@H](CC(C)C)C(=O)NCC(=O)N[C@@H](CCCCN)C(=O)N[C@@H](Cc1cnc[nH]1)C(=O)N[C@@H](CC(C)C)C(=O)N[C@@H](CC(N)=O)C(=O)N[C@@H](CO)C(=O)N[C@@H](CCSC)C(=O)N[C@@H](CCC(=O)O)C(=O)N[C@@H](CCCN=C(N)N)C(=O)N[C@H](C(=O)N[C@@H](CCC(=O)O)C(=O)N[C@@H](Cc1c[nH]c2ccccc12)C(=O)N[C@@H](CC(C)C)C(=O)N[C@@H](CCCN=C(N)N)C(=O)N[C@@H](CCCCN)C(=O)N[C@@H](CCCCN)C(=O)N[C@@H](CC(C)C)C(=O)N[C@@H](CCC(N)=O)C(=O)N[C@@H](CC(=O)O)C(=O)N[C@H](C(=O)N[C@@H](Cc1cnc[nH]1)C(=O)N[C@@H](CC(N)=O)C(=O)N[C@@H](Cc1ccccc1)C(=O)O)C(C)C)C(C)C [rhPTH (1-34)]
– | – | – | – | – | – | – | – | – | 6.27±1.29 | lysine-linked deoxycholic acid [LysDOCA]
